Target: recombinant human PAI-1 (Homo sapiens, UniProt P05121)
Test: PAI-1 inhibitory activity, Test Method A (tPA fluorogenic substrate, Tris buffer pH8.0, 37 C)
Format: biochemical
Conditions: Test Method A

recombinant human PAI-1, sequence (P05121 24-402): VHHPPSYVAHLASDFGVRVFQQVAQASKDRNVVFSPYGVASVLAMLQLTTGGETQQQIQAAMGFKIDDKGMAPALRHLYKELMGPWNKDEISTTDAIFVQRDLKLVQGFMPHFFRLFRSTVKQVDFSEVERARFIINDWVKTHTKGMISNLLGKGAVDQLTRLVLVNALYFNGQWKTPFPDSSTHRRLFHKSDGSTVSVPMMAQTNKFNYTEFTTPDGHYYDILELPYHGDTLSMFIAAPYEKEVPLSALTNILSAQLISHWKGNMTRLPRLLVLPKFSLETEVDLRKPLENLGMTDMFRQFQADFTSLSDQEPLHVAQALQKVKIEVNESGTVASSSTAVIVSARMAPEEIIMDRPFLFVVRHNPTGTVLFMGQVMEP

Structure (SMILES)	Inhibitory Ratio at 25 μM (%) (25 μM test compound)	Inhibitory Ratio at 25 μM (%) (test compound 25 μM)
CC(C)C1=NN(c2ccc(Cl)c(Cl)c2)C(=O)C1=Cc1cc(C=Cc2ccc(Oc3ccccc3)cc2)ccc1O [Compound No. 566]	76%	–
O=C1SC(=Cc2ccc(Cl)c(Cl)c2)C(=O)N1Cc1cc(O)c(O)c(O)c1 [compound 78, 5-(3,4-Dichlorobenzylidene)-3-(3,4,5-trihydroxybenzyl)thiazolidine-2,4-dione]	–	90%
COc1ccc(COC(=O)c2cc(C=C3SC(=O)N(Cc4ccc(-c5ccccc5)cc4)C3=O)ccc2O)cc1 [compound 362, 5-[3-(4-Methoxybenzyloxycarbonyl)-4-hydroxybenzylidene]-3-(4-phenylbenzyl)thiazolidine-2,4-dione]	>99%	–
CC(C)C1=NN(c2cc(Cl)cc(Cl)c2)C(=O)C1=Cc1cccc(O)c1O [compound 104, 4-(2,3-Dihydroxybenzylidene)-1-(3,5-dichlorophenyl)-3-isopropyl-2-pyrazolin-5-one]	–	92%
COc1ccc(C=Cc2ccccc2)cc1C=C1C(=O)N(c2ccc(C(=O)O)cc2)N=C1C(C)C [compound 535]	75%	–
COC(=O)c1cccc(N2N=C(C(C)C)C(=Cc3cc(Br)cc(Br)c3O)C2=O)c1 [compound 108, 4-(3,5-Dibromo-2-hydroxybenzylidene)-1-[3-(Methoxycarbonyl)phenyl]-3-isopropyl-2-pyrazolin-5-one]	–	27%
O=C1SC(=Cc2cn(Cc3ccc(OCc4ccccc4)c(OCc4ccccc4)c3)c3ccccc23)C(=O)N1Cc1ccc(Cl)c(Cl)c1 [compound 411, 5-[1-(3,4-dibenzyloxybenzyl)indol-3-ylmethylene]-3-(3,4-dichlorobenzyl)thiazolidine-2,4-dione]	95%	–
O=C1SC(=Cc2ccc(O)c(O)c2)C(=O)N1Cc1cccc(Cl)c1Cl [compound 19]	–	>99%
COC(=O)c1cccc(N2N=C(C(C)C)C(=Cc3ccc4c(c3)OCO4)C2=O)c1 [compound 208]	–	47%
COc1cc(C=C2SC(=O)N(Cc3ccc(Cl)c(Cl)c3)C2=O)cc(C(=O)O)c1O [compound 345, 5-(3-Methoxy-4-hydroxy-5-carboxybenzlidene)-3-(3,4-dichlorobenzyl)thiazolidine-2,4-dione]	89%	–
O=C(O)c1cccc(N2N=C(c3ccccc3)C(=Cc3ccc(-c4cc(C(F)(F)F)cc(C(F)(F)F)c4)o3)C2=O)c1 [compound 217]	–	>99%
COc1cc(C=C2SC(=O)N(Cc3ccc(Cl)c(Cl)c3)C2=O)cc(C(=O)Nc2ccc(O)c(C)c2)c1O [compound 361]	>99%	–
COc1cc(C=C2SC(=O)N(Cc3ccc(Cl)c(Cl)c3)C2=O)ccc1Cl [compound 327, 5-(3-methoxy-4-chlorobenzylidene)-3-(3,4-dichlorobenzyl)-thiazolidine-2,4-dione]	61%	–
CC1=NN(c2cccc(C(F)(F)F)c2)C(=O)C1=Cc1ccc(O)c(O)c1 [compound 113]	–	68%
COc1ccc(NC(=O)c2cccc(C=C3SC(=O)N(Cc4ccc(Cl)c(Cl)c4)C3=O)c2)cc1OC [compound 357]	82%	–
COC(=O)c1cccc(C=C2C(=O)N(c3cc(Cl)cc(Cl)c3)N=C2C(C)C)c1 [compound 204, 4-[3-(methoxycarbonyl)benzylidene]-1-(3,5-dichlorophenyl)-3-isopropyl-2-pyrazolin-5-one]	–	>99%
O=C1C(=Cc2ccc(O)c(O)c2)C(C(F)(F)F)=NN1c1cccc([N+](=O)[O-])c1 [compound 137]	–	>99%
CC1=NN(c2ccc(Cl)c(Cl)c2)C(=O)C1=Cc1cc(Br)ccc1O [compound 102]	–	63%
COc1ccc(-c2cc(C=C3SC(=O)N(Cc4ccc(Cl)c(Cl)c4)C3=O)ccc2OC)cc1 [compound 448, 5-[4-Methoxy-3-(4-methoxyphenyl)benzylidene]-3-(3,4-dichlorobenzyl)thiazolidine-2,4-dione]	51%	–

From patent US20070276011A1, “Plasminogen Activator Inhibitor-1 Inhibitor” (priority 2003, published 2007)
